Assay results as given in patent US7060733B2, “Methods for treating pancreatitis with curcumin compounds and inhibitors of reactive oxygen species” (The Regents of the University of California, priority 2002, dated 2006).
Entries after “also recorded” stand apart in the source; their conditions may differ.

How the values were obtained:
[1] = test system: rats with cerulein pancreatitis or ethanol/CCK pancreatitis; test: Serum amylase and lipase in cerulein and ethanol/CCK pancreatitis models; assay type: in vivo; conditions: rat; for inhibition of the increase in serum amylase and lipase: curcumin 35 mg/kg/h i.v. for 6 h
Method: 5 μg/kg/h of Cerulein (American Peptide Co., Sunnyvale, Calif.) or vehicle control was administered to male Sprague-Dawley rats (275-350 g; Harlan, Madison, Wis.) by continuous 6-hour intravenous infusion by conventional methods known in the art. See Gukovskaya A S, et al. (1997) J. Clin. Invest. 100:1853-1862; Gukovsky I, et al. (1998) Am. J. Physiol. 275:[…]-[…]; and Zaninovic V, et al. (2000) Am. J. Physiol. 279:[…]-[…], which are herein incorporated by reference. Animals were euthanized by CO2-induced asphyxiation, and blood and the pancreas were harvested for measurements. Curcumin (Sigma Chemical, St. Louis, Mo.) was dissolved in dimethyl sulfoxide (DMSO) and administered to each animal by i.v. infusion together with cerulein at a dose of 35 mg/kg/h. Thus, during the 6-hour treatment, each animal received a total of 200 mg/kg (0.5 mmol/kg) of curcumin. Serum amylase and lipase were measured under contract using a Hitachi 707 analyzer (Antech Diagnostics, Irvine Calif.) and methods known in the art. […] Thus, curcumin inhibits […] pancreatitis. An ethanol/CCK-induced pancreatitis model as previously described was used. See Pandol S J, et al. (1999). Specifically, Sprague-Dawley rats (400-500 g; Harlan, Madison, Wis.) were given an intragastric infusion of ethanol-containing or control diet for 6 weeks followed by 6-hour infusion of a low dose (3000 pmol/kg/h) CCK-8 (Peninsula Laboratories, Belmont, Calif.). […] CCK-8 causes pancreatitis in both rats and mice by stimulating the activation of the inflammatory signals, i.e. NF-κB and AP-1, in the pancreatic acinar cell. Animals were euthanized by CO2-induced asphyxiation, and blood and the pancreas were harvested for measurements. Curcumin (Sigma Chemical, St. Louis, Mo.) was dissolved in dimethyl sulfoxide (DMSO) and administered to each animal by i.v. infusion together with CCK-8 at a dose of 35 mg/kg/h. Thus, during the 6-hour treatment, each animal received a total of 200 mg/kg (c. 0.5 mmol/kg) of curcumin. Serum amylase and lipase were measured under contract using a Hitachi 707 analyzer (Antech Diagnostics, Irvine Calif.) and methods known in the art. […] Thus, curcumin inhibits […] pancreatitis.

trypsin = test: Trypsin activation assay in pancreatic tissue homogenates; assay type: in vivo, rat; conditions: for inhibition of intrapancreatic trypsin activation / active trypsin versus pancreatitis without curcumin: rat
Method: Pancreatic tissue homogenates were prepared by methods known in the art. See Gukovskaya A S, et al. (2002); Gukovsky I, et al. (1998); Sandoval D, et al. (1996) Gastroenterology 111:1081–1091; and Vaquero E, et al. (2001), which are herein incorporated by reference. Active trypsin was measured in the pancreatic tissue homogenates by using a specific substrate, Boc-GLn-Ala-Arg-A MC (Bachem, Torrance, Calif.). See Kawabata S. et al. (1988) Eur. J. Biochem. 172:17–25, which is herein incorporated by reference. Cleavage of the substrate by trypsin releases 7-amino-4-methylcoumarin (AMC), which emits fluorescence at 440 nm with excitation at 380 nm. Trypsin activity in each sample was determined using a standard curve for purified trypsin.
Specifically, about ⅓ of rat pancreas was homogenized in 2 ml ice-cold buffer A (5 mM MES, pH 6.5; 1 mM MgSO4, 250 mM sucrose). Then 2 ml of buffer B (50 mM Tris, pH 8.0; 150 mM NaCl, 1 mM CaCl2, 0.1 mg/ml BSA) was mixed with 25 μl of the homogenate and kept on ice. Then 2 μl of 20 mM substrate solution (20 mM Boc-Gln-Ala-Arg-AMC.HCl in DMSO) was added to start the reaction. The sample was mixed well and incubated at 37° C. The reaction product was measured with a spectrofluorimeter for 20 minutes at ex=380 nm; em=440 nm.

NF-κB = test: CCK-induced NF-κB activation in isolated pancreatic acinar cells (EMSA); assay type: cell-based, rat
Method: To confirm that the effects of curcumin occur in the pancreatic acinar cell, the effects of curcumin on the activation of NF-κB and AP-1 in vitro in CCK-stimulated pancreatic acini. Pancreatic acini were prepared from rat pancreas using the collagenase digestion method as described by Pandol S J, et al. (1982) J. Biol. Chem. 257:12024–12029, which is herein incorporated by reference, and then incubated at 37° C. in 199 medium (GIBCO, Rockville, Md.) known in the art. See Blinman T A, et al. (2000); Gukovskaya A S, et al. (1997); Gulkovsky I, et al. (1998); and Zaninovic V, et al. (2000).
EMSAs for NF-κB and AP-1 were performed on nuclear proteins extracted from each sample as provided above.
Nuclear protein extracts were prepared by methods known in the art. See Blinman T A, et al. (2000); Gukovskaya A S, et al. (1997); Gukovsky I, et al. (1998); Pandol S J, et al. (1999); Vaquero E, et al. (2001); and Zaninovic V, et al. (2000). Briefly, samples of pancreatic tissue or isolated acini were rinsed in ice-cold PBS and homogenized in hypotonic Buffer A (20 mM β-glycerophosphate, 10 mM HEPES, pH 7.6, 1.5 mM MgCl2, 10 mM KCl, 10 mM Na2MoO4, 0.1 mM Na3VO4, 1 mM dithiothreitol (DTT), 1 mM phenylmethylsulfonyl fluoride (PMSF), 5 μg/ml each of protease inhibitors pepstatin, leupeptin, chymostatin, antipain and aprotinin). […]

In the case of COc1cc(/C=C/C(=O)CC(=O)/C=C/c2ccc(O)c(OC)c2)ccc1O [curcumin], the “inhibition of the increase in serum amylase and lipase” value ([1]; cerulein pancreatitis) was “approximately 50%”, the “serum amylase versus pancreatitis without curcumin” value ([1]; cerulein pancreatitis, p<0.05) was “significantly inhibited; also recorded: significantly lower” and the “serum lipase versus pancreatitis without curcumin” value ([1]; cerulein pancreatitis, p<0.05) was “significantly inhibited; also recorded: significantly lower”. For the same compound, the “inhibition of the increase in serum amylase and lipase” value ([1]; ethanol/CCK pancreatitis) was “approximately 50%”, the “serum amylase and lipase versus pancreatitis without curcumin” value ([1]; ethanol/CCK pancreatitis, p<0.05) was “significantly inhibited; also recorded: significantly lower” and the “inhibition of intrapancreatic trypsin activation” value (trypsin; EtOH+CCK model) was “greater than 50%”. For the same compound, the “inhibition of intrapancreatic trypsin activation” value (trypsin; cerulein model) was “greater than 70%”, the “active trypsin versus pancreatitis without curcumin” value (trypsin; cerulein pancreatitis) was “significantly lower; also recorded: significantly inhibited” and the “basal level of active pancreatic trypsin” value (trypsin; ethanol-fed rats, EtOH+CCK model, basal) was “unaffected”. The “active trypsin versus pancreatitis without curcumin” value (trypsin; ethanol/CCK pancreatitis) was “significantly lower; also recorded: significantly inhibited”, the “CCK-induced activation of NF-κB in isolated acinar cells” value (NF-κB; 1 h with compound, then 0.1 μM CCK 30 min) was “inhibits; also recorded: abolished; also recorded: blocked; also recorded: attenuates; also recorded: not highly potent” and the “basal NF-κB binding activity in acinar cells” value (NF-κB; control cells, incubated without CCK) was “inhibited”.
